From the NIST ThermoML archive (doi:10.1021/je700260f)

Settings: 323.14 K, Liquid, Vibrating tube method

FC(C(F)(F)F)C(F)(F)F [1,1,1,2,3,3,3-heptafluoropropane]
Settings | mass density [kg/m3]
13161 kPa | 1383.4
13263 kPa | 1384.2
13295 kPa | 1384.2
13310 kPa | 1384.3
13334 kPa | 1384.5
13348 kPa | 1384.5
13370 kPa | 1384.7
13389 kPa | 1384.9
13415 kPa | 1385
13433 kPa | 1385
13456 kPa | 1385.2
13476 kPa | 1385.4
13497 kPa | 1385.5
13522 kPa | 1385.7
13541 kPa | 1385.7
13570 kPa | 1385.9
13595 kPa | 1386
13614 kPa | 1386.2
13637 kPa | 1386.4
13663 kPa | 1386.4
13682 kPa | 1386.6
13710 kPa | 1386.8
13870 kPa | 1387.7
14734 kPa | 1393
14760 kPa | 1393
14781 kPa | 1393.3
14798 kPa | 1393.4
14818 kPa | 1393.6
14842 kPa | 1393.7
14866 kPa | 1393.6
14883 kPa | 1393.8
14902 kPa | 1394
14919 kPa | 1394.1
14940 kPa | 1394.1
14959 kPa | 1394.3
14983 kPa | 1394.4
15001 kPa | 1394.4
15028 kPa | 1394.7
15049 kPa | 1394.9
15077 kPa | 1395
15098 kPa | 1395
15122 kPa | 1395.1
15150 kPa | 1395.5
15173 kPa | 1395.6
15198 kPa | 1395.7
15219 kPa | 1395.7
15265 kPa | 1396.1
15284 kPa | 1396.2
15307 kPa | 1396.3
15326 kPa | 1396.4
15346 kPa | 1396.5
15368 kPa | 1396.6
15389 kPa | 1396.7
15413 kPa | 1396.8
15436 kPa | 1397
15456 kPa | 1397.1
15488 kPa | 1397.3
15504 kPa | 1397.5
15524 kPa | 1397.5
15550 kPa | 1397.7
15575 kPa | 1397.8
15602 kPa | 1398
15630 kPa | 1398.1
15655 kPa | 1398.2
15678 kPa | 1398.5
16094 kPa | 1400.8
16115 kPa | 1400.9
16141 kPa | 1401
16161 kPa | 1401.1
16188 kPa | 1401.4
17246 kPa | 1407
17274 kPa | 1407.3
17301 kPa | 1407.6
17357 kPa | 1407.6
17403 kPa | 1407.9
17424 kPa | 1408
17446 kPa | 1408.2
17472 kPa | 1408.3
17493 kPa | 1408.4
17519 kPa | 1408.6
17539 kPa | 1408.5
17574 kPa | 1408.8
17597 kPa | 1408.9
17623 kPa | 1409
17646 kPa | 1409.2
17666 kPa | 1409.3
17693 kPa | 1409.4
17717 kPa | 1409.6
17741 kPa | 1409.7
17761 kPa | 1409.8
17791 kPa | 1410
17819 kPa | 1410.1
17843 kPa | 1410.3
17864 kPa | 1410.4
17920 kPa | 1410.7
18206 kPa | 1412.2
18259 kPa | 1412.5
18289 kPa | 1412.6
18339 kPa | 1412.9
18360 kPa | 1412.9
18390 kPa | 1413.2
18414 kPa | 1413.2
18445 kPa | 1413.4
